Data from the supplement of paper PMC10883282.

Legend:
Experiment in all cases: relative viability vs DMSO control (72 h) (fraction); higher = more viable cells
A204 = system: A204
Method in brief: (§1)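 Serially diluted compound, 2.5 µl from source plates spanning 10 mM to 0.0002 mM, was added 24 h after sarcoma cell lines were seeded in 384-well plates at densities targeting 80–90% confluence. Plates then sat 72 h at 37 °C, 5% CO2, with 0.1% DMSO vehicle and a 5 µM positive control. Relative viability came from ATPLite as percent growth, averaged over up to triplicate wells, and was rescaled with 1 as full and 0 as none.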

SW982 = system: SW982
Method in brief: as §1

SW1353 = system: SW1353
Method in brief: as §1

G401 = system: G401
Method in brief: as §1

SW872 = system: SW872
Method in brief: as §1

SK-LMS-1 = system: SK-LMS-1
Method in brief: as §1

SK-ES-1 = system: SK-ES-1
Method in brief: as §1

MES-SA = system: MES-SA
Method in brief: as §1

SYO-1 = system: SYO-1
Method in brief: as §1

KHOS-240S = system: KHOS-240S
Method in brief: as §1

SW684 = system: SW684
Method in brief: as §1

HS729 = system: HS729
Method in brief: as §1

C[C@]12O[C@H](C[C@]1(O)CO)n1c3ccccc3c3c4c(c5c6ccccc6n2c5c31)CNC4=O [Lestaurtinib]
Conditions | relative viability
A204, 0.00017 µM | 1.07
A204, 0.00051 µM | 1.07
A204, 0.00152 µM | 1.07
A204, 0.00457 µM | 1.02
A204, 0.01372 µM | 0.967
A204, 0.04115 µM | 0.788
A204, 0.1235 µM | 0.56
A204, 0.3704 µM | 0.378
A204, 1.111 µM | 0.321
A204, 3.333 µM | 0.277
A204, 10 µM | 0.118
G401, 0.00017 µM | 1.01
G401, 0.00051 µM | 0.985
G401, 0.00152 µM | 1.03
G401, 0.00457 µM | 1.02
G401, 0.01372 µM | 1.03
G401, 0.04115 µM | 0.996
G401, 0.1235 µM | 0.985
G401, 0.3704 µM | 0.912
G401, 1.111 µM | 0.718
G401, 3.333 µM | 0.023
G401, 10 µM | 0.00583
HS729, 0.00017 µM | 1.05
HS729, 0.00051 µM | 1
HS729, 0.00152 µM | 1.01
HS729, 0.00457 µM | 0.932
HS729, 0.01372 µM | 0.863
HS729, 0.04115 µM | 0.797
HS729, 0.1235 µM | 0.757
HS729, 0.3704 µM | 0.723
HS729, 1.111 µM | 0.619
HS729, 3.333 µM | 0.411
HS729, 10 µM | 0.207
KHOS-240S, 0.00017 µM | 1.086
KHOS-240S, 0.00051 µM | 1.06
KHOS-240S, 0.00152 µM | 1.1
KHOS-240S, 0.00457 µM | 1.04
KHOS-240S, 0.01372 µM | 1.06
KHOS-240S, 0.04115 µM | 1.05
KHOS-240S, 0.1235 µM | 0.892
KHOS-240S, 0.3704 µM | 0.525
KHOS-240S, 1.111 µM | 0.345
KHOS-240S, 3.333 µM | 0.169
KHOS-240S, 10 µM | 0.0619
MES-SA, 0.00017 µM | 0.966
MES-SA, 0.00051 µM | 0.928
MES-SA, 0.00152 µM | 0.947
MES-SA, 0.00457 µM | 0.947
MES-SA, 0.01372 µM | 0.874
MES-SA, 0.04115 µM | 0.751
MES-SA, 0.1235 µM | 0.538
MES-SA, 0.3704 µM | 0.333
MES-SA, 1.111 µM | 0.2911
MES-SA, 3.333 µM | 0.164
MES-SA, 10 µM | 0.00447
SK-ES-1, 0.00017 µM | 1.1
SK-ES-1, 0.00051 µM | 1.06
SK-ES-1, 0.00152 µM | 1.07
SK-ES-1, 0.00457 µM | 1
SK-ES-1, 0.01372 µM | 0.881
SK-ES-1, 0.04115 µM | 0.543
SK-ES-1, 0.1235 µM | 0.329
SK-ES-1, 0.3704 µM | 0.0863
SK-ES-1, 1.111 µM | 0.0742
SK-ES-1, 3.333 µM | 0.0554
SK-ES-1, 10 µM | 0.0776
SK-LMS-1, 0.00017 µM | 1.08
SK-LMS-1, 0.00051 µM | 1.1
SK-LMS-1, 0.00152 µM | 1.06
SK-LMS-1, 0.00457 µM | 1.04
SK-LMS-1, 0.01372 µM | 1.01
SK-LMS-1, 0.04115 µM | 0.878
SK-LMS-1, 0.1235 µM | 0.722
SK-LMS-1, 0.3704 µM | 0.669
SK-LMS-1, 1.111 µM | 0.541
SK-LMS-1, 3.333 µM | 0.353
SK-LMS-1, 10 µM | 0.146
SW684, 0.00017 µM | 1.15
SW684, 0.00051 µM | 1.18
SW684, 0.00152 µM | 1.16
SW684, 0.00457 µM | 1.17
SW684, 0.01372 µM | 1.18
SW684, 0.04115 µM | 1.13
SW684, 0.1235 µM | 1.11
SW684, 0.3704 µM | 0.913
SW684, 1.111 µM | 0.659
SW684, 3.333 µM | 0.346
SW684, 10 µM | 0.0527
SW872, 0.00017 µM | 1.08
SW872, 0.00051 µM | 1.07
SW872, 0.00152 µM | 1.04
SW872, 0.00457 µM | 1.03
SW872, 0.01372 µM | 0.955
SW872, 0.04115 µM | 0.803
SW872, 0.1235 µM | 0.648
SW872, 0.3704 µM | 0.507
SW872, 1.111 µM | 0.358
SW872, 3.333 µM | 0.267
SW872, 10 µM | 0.0094
SW982, 0.00017 µM | 1.03
SW982, 0.00051 µM | 1.03
SW982, 0.00152 µM | 1.06
SW982, 0.00457 µM | 1.03
SW982, 0.01372 µM | 0.895
SW982, 0.04115 µM | 0.697
SW982, 0.1235 µM | 0.494
SW982, 0.3704 µM | 0.381
SW982, 1.111 µM | 0.314
SW982, 3.333 µM | 0.23
SW982, 10 µM | 0.0243
SW1353, 0.00017 µM | 1.04
SW1353, 0.00051 µM | 1.01
SW1353, 0.00152 µM | 1
SW1353, 0.00457 µM | 0.975
SW1353, 0.01372 µM | 0.943
SW1353, 0.04115 µM | 0.868
SW1353, 0.1235 µM | 0.756
SW1353, 0.3704 µM | 0.698
SW1353, 1.111 µM | 0.6462
SW1353, 3.333 µM | 0.375
SW1353, 10 µM | 0.155
SYO-1, 0.00017 µM | 1.02
SYO-1, 0.00051 µM | 0.989
SYO-1, 0.00152 µM | 0.992
SYO-1, 0.00457 µM | 0.991
SYO-1, 0.01372 µM | 0.943
SYO-1, 0.04115 µM | 0.873
SYO-1, 0.1235 µM | 0.644
SYO-1, 0.3704 µM | 0.295
SYO-1, 1.111 µM | 0.0874
SYO-1, 3.333 µM | 0.1
SYO-1, 10 µM | 0.102
